Laboratory results as given in ChEMBL document CHEMBL1201862, “PubChem BioAssay data set” (2004).
The source made the active and inactive calls.

Columns and labels:
[1] = target: T1, Mannose-6-phosphate isomerase (Homo sapiens, UniProt P34949); test: MPI inhibition at elevated mannose 6-phosphate – biochemical, fluorescence intensity, high mannose 6-phosphate, primary screen (AID 1220)
T1 sequence (P34949 whole entry): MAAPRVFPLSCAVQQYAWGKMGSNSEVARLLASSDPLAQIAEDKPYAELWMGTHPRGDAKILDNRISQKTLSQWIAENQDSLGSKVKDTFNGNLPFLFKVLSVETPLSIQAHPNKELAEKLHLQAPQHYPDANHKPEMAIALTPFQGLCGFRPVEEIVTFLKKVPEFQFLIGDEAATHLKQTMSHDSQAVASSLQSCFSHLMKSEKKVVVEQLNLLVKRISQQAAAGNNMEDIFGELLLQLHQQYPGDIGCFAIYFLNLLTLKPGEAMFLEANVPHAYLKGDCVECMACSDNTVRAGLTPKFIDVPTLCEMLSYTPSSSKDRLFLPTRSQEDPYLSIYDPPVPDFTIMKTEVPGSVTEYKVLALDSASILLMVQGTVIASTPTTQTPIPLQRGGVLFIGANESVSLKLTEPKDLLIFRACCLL

[2] = target: T1, Mannose-6-phosphate isomerase; test: MPI enzyme activity inhibition – biochemical, fluorescence intensity, coupled assay, primary screen (AID 1209)
[3] = target: Heat shock protein HSP 90-alpha (Homo sapiens, UniProt P07900); test: Luminescence-based dose response biochemical high throughput screening assay for inhibitors of the Heat Shock Protein 90 (HSP90). [Related pubchem assays: 1831 (Summary AID.), 1846 (Confirmation screen.), 1789 (Primary screen.)]
[4] = target: T2, Rac GTPase-activating protein 1 (Homo sapiens, UniProt Q9H0H5); test: blockers of MgcRacGAP-driven Rac1 GTP hydrolysis – biochemical, ADP Hunter fluorescence, primary and confirmatory, confirmation (AID 624330); assay type: functional
T2 sequence (Q9H0H5 whole entry): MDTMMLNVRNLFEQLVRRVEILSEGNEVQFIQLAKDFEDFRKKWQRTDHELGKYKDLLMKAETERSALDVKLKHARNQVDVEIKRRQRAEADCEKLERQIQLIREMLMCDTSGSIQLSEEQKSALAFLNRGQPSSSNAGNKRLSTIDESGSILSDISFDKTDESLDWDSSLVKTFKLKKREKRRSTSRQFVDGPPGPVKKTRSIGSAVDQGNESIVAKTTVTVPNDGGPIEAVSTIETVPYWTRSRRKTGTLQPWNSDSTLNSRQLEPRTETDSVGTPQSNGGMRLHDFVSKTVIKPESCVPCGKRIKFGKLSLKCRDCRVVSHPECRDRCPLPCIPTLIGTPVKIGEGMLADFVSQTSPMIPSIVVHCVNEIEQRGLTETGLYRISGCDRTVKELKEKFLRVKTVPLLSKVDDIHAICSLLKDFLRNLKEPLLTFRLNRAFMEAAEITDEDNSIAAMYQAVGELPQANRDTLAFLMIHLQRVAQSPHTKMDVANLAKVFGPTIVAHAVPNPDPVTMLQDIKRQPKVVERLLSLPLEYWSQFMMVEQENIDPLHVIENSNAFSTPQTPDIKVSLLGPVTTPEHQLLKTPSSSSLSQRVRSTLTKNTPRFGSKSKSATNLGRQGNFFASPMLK

[5] = viability loss in HeLa cells – cytotoxicity control for MgcRacGAP inhibitor project, dose response (AID 624300); assay type: functional
Major prion protein = Major prion protein (Homo sapiens, UniProt P04156); assay type: functional, cell-based
[6] = target: T3, Polyadenylate-binding protein 1 (Homo sapiens, UniProt P11940); test: MLLE binding blockers, Cy5 peptide tracer – biochemical, fluorescence polarization, Cy5-PAM2 peptide, secondary, miRNA deadenylation inhibitor project, dose response (AID 602260); assay type: functional; settings: read-out: IC50_Mean
[7] = target: DNA dC->dU-editing enzyme APOBEC-3G (Homo sapiens, UniProt Q9HC16); test: Dose Response confirmation of small molecule APOBEC3G DNA Deaminase Inhibitors via a fluorescence-based single-stranded DNA deaminase assay. [Related pubchem assays (depositor defined):AID493012, AID493028]; assay type: functional
[8] = target: DNA dC->dU-editing enzyme APOBEC-3A (Homo sapiens, UniProt P31941); test: A3A deaminase inhibition for selectivity – biochemical, dose response (AID 504722); assay type: functional
[9] = target: T3, Polyadenylate-binding protein 1; test: MLLE domain peptide-binding blockers, IC50 – biochemical, fluorescence polarization, FITC-PAM2 peptide, dose response (AID 602259); assay type: functional; settings: read-out: IC50_Mean
Estrogen receptor beta = Estrogen receptor beta (Homo sapiens, UniProt Q92731);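 further: recombinant ER-beta bound to coactivator SRC1 peptide in presence of estradiol agonist; inhibitors block coactivator peptide binding and lower the FRET signal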
[10] = target: Disintegrin and metalloproteinase domain-containing protein 17 (Homo sapiens, UniProt P78536); test: exosite inhibitors of ADAM17, dose response, biochemical (AID 743260)
[11] = inhibition of ADAM10 peptide cleavage – biochemical, FRET peptide substrate, recombinant human ADAM10, selectivity assay for ADAM17 exosite inhibitor project, dose response (AID 743259);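 further: ADAM10 enzyme cleaving a FRET peptide substrate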
[12] = target: Mitogen-activated protein kinase 10 (Homo sapiens, UniProt P53779); test: Dose response biochemical screening assay for inhibitors of c-Jun N-Terminal Kinase 3 (JNK3). [Related pubchem assays: 746 ]
[13] = Trypanosoma cruzi growth suppression in host cells – NIH3T3 host cells, beta-gal luminescence, confirmation (AID 2044); assay type: functional, cell-based;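 further: intracellular parasites grown in NIH/3T3 mouse fibroblasts as host cells; luminescent beta-galactosidase reporter signal from transgenic T. cruzi replicating inside host cells; inhibitors lower the luminescence signal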
[14] = NIH3T3 cell viability loss – ATP luminescence, mouse fibroblasts, counter-screen, dose response (AID 2010); assay type: functional, cell-based;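 further: cells exposed to compound for about 90 hours before reading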
Mu-type opioid receptor = Mu-type opioid receptor (Homo sapiens, UniProt P35372); assay type: functional, cell-based;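 further: U2OS cells with beta-arrestin recruitment to OPRM1 by beta-gal complementation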
[15] = target: 5-hydroxytryptamine receptor 2A (Mus musculus, UniProt P35363); assay type: functional, cell-based;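 further: CHO-K1 cells with tagged receptor and beta-arrestin; agonist potency measured as compound-induced activation of the receptor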
[16] = OVCAR8 cell viability loss – plate reader, dry powder samples, PAX8 project, dose response (AID 743197); assay type: functional, cell-based; settings: OVCAR-8
Paired box protein Pax-8 = Paired box protein Pax-8 (Homo sapiens, UniProt Q06710); test: PAX8 transcriptional activity inhibition in RMG-I – RMG-I cells, luciferase, cherry-pick, dose response (AID 687027); assay type: functional, cell-based;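 further: luciferase reporter driven by Pax8 target thyroperoxidase promoter measured by SteadyGlo luminescence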
[17] = blockers of HIV-1 envelope-mediated cell-cell fusion – cherry-pick, dose response (AID 652057); assay type: functional, cell-based
[18] = HIV-1 AD8 envelope cell-cell fusion blockers – cherry-pick, dose response (AID 652062); assay type: functional, cell-based;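 further: luciferase signal from cell-cell fusion driven by HIV-1 clade B AD8 Env; potency is for inhibitors of fusion seen as a drop in luminescence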
[19] = general mammalian cell viability loss – inhibitor set, cherry-pick, set 2, cytotoxicity control for miR-122 modulator project, dose response (AID 720697); assay type: functional, cell-based

In the case of `CC(C)(C)N1C(=O)Cc2c1nc(N)c1c(N)nc(N3CCCCC3CO)c(C#N)c21` (stereo not given), the IC50 [1] is reported as > 50 µM (not active) and the IC50 [2] is reported as > 50 µM (not active).
For `CCOc1ccc(-c2nc(CN(Cc3ccccc3)C[C@@H]3CCC(=O)N3)c(C)o2)cc1`, the IC50 [3] was 3.05 µM (active).
For `Cn1nccc1C(=O)Nc1ccc(OC(=O)c2ccnn2C)cc1`, the IC50 [4] was 16.7 µM (active) and the CC50 [5] was 100 µM (active).
For `CCCn1c(N)c(C(=O)CSc2nncs2)c(=O)[nH]c1=O`, the IC50 (Major prion protein) was 5.88 µM (active) and the IC50 (cells) was > 138 µM (inactive).
With `CCn1c(O)nc(CS(=O)(=O)c2ccccc2)c1C` the IC50 [1] was 1.23 µM (active), the IC50 [6] was > 66 µM (inactive) and the IC50 [7] was 6.9 µM (active). For the same compound, the IC50 [8] was > 100 µM (inactive) and the IC50 [9] was > 66 µM (inactive).
For `COC(=O)CSc1nc(-c2ccccc2)nc2ccc(F)cc12`, the IC50 (Major prion protein) was 2.56 µM (active) and the IC50 (cells) was > 138 µM (inactive).
With `O=S(=O)(Nc1ncnc2sc3c(c12)CCC3)c1ccc2ccccc2c1` the IC50 (Estrogen receptor beta) was 25 µM (active).
For `CCN(c1ccccc1)S(=O)(=O)c1ccc(N2CCN(c3ccc(O)cc3)CC2)nc1`, the IC50 [4] was 40.5 µM (active) and the CC50 [5] was 100 µM (active).
With `CCOC(=O)NC(=O)CSc1cc(C)c2cc(C)cc(C)c2n1` the IC50 (Major prion protein) was 9.4 µM (active) and the IC50 (cells) was > 138 µM (inactive).
For `CCOc1cccc(OCCOc2ccc(C(=O)c3ccccc3)cc2)c1`, the IC50 [10] was > 69.5 µM (inactive) and the IC50 [11] was > 69.5 µM (inactive).
With `Cc1ccc2[nH]c3c(c2c1)CCc1c[nH]nc1-3` the IC50 [1] was 43.4 µM (active) and the IC50 [12] was 16.4 µM (not active).
In the case of `COc1cc(CC(=O)Nc2ncc(C)s2)cc(OC)c1OC`, the IC50 [12] is reported as 13.3 µM (not active).
With `Cc1ccc(S(=O)(=O)N(CCCO)CC(O)CON=C2c3ccccc3-c3ccccc32)cc1` (stereo not given) the EC50 [13] was 1.6 µM (active), the IC50 [10] was > 69.5 µM (inactive) and the IC50 [11] was > 7.72 µM (active). For the same compound, the EC50 [14] was > 60 µM (not active).
In the case of `c1ccc(N2CCN(Cc3ccc4c(c3)OCO4)CC2)nc1`, the EC50 (Mu-type opioid receptor) is reported as 92.5 µM (inactive) and the EC50 [15] is reported as 0.0228 µM (active).
For `COc1ccc(NC(=O)C2(C)Cc3c(-c4cccc(C(F)(F)F)c4)ccnc3O2)cn1` (stereo not given), the IC50 [10] was > 69.5 µM (inactive) and the IC50 [11] was 32.4 µM (inactive).
With `C[C@@H]1CCCCO[C@@H](CN(C)Cc2ccc(Cl)c(Cl)c2)[C@H](C)CN([C@@H](C)CO)C(=O)c2cc(NS(=O)(=O)c3ccc(Cl)cc3)ccc2O1` the AC50 [16] was 44 µM (active) and the AC50 (Paired box protein Pax-8) was 7 µM (active).
In the case of `Cc1ccccc1S(=O)(=O)N1C[C@H](O)COC[C@H]2O[C@@H](CC(=O)NCc3ccccc3Cl)CC[C@@H]21`, the AC50 [17] is reported as 1.12 µM (active) and the AC50 [18] is reported as 6.43 µM (active).
With `C[C@@H]1CCCCO[C@@H](CN(C)Cc2ccncc2)[C@H](C)CN([C@H](C)CO)C(=O)c2cc(NC(=O)Nc3ccc(C(F)(F)F)cc3)ccc2O1` the AC50 [16] was 53.8 µM (active) and the AC50 (Paired box protein Pax-8) was 6.48 µM (active).
With `C[C@H](NC(=O)C[C@@H]1CC[C@H]2[C@H](COc3ccc(NS(=O)(=O)c4ccc(Cl)cc4)cc3C(=O)N2C)O1)c1ccccc1` the AC50 [19] was 9.74 µM (active).
For `c1ccc2c(c1)nc(N1CCOCC1)c1c3ccccc3[nH]c21`, the IC50 [12] was 30.4 µM (not active).
